Laboratory results published in ChEMBL document CHEMBL1201862, “PubChem BioAssay data set” (2004).
The source made the active and inactive calls. Rule as the data show it, for most assays here: actives have a measured EC50 and inactives only a lower limit.

Tests used:
[1] = biological target: T1, RNA-binding protein pos-1 (Caenorhabditis elegans, UniProt G5EF15); assay: inhibitors of POS-1/mex-3 RNA binding, dose response, biochemical, fluorescence polarization (AID 1964);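 also: purified POS-1 fused to maltose binding protein made in E. coli; potency of compounds blocking POS-1 binding to fluorescent RNA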
T1 sequence (G5EF15 whole entry): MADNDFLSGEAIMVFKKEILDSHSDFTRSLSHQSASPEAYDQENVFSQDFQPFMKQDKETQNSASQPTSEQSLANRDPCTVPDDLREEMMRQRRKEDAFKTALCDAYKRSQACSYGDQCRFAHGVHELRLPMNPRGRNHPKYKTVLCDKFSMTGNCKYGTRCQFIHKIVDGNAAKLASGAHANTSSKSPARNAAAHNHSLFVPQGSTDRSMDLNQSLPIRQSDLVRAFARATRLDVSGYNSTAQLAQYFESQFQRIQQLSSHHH

[2] = biological target: T2, Zinc finger protein mex-5 (Caenorhabditis elegans, UniProt Q9XUB2); assay: MEX-5/TCR-2 RNA interaction inhibitors, dose response, biochemical, C. elegans, fluorescence polarization (AID 1960)
T2 sequence (Q9XUB2 whole entry): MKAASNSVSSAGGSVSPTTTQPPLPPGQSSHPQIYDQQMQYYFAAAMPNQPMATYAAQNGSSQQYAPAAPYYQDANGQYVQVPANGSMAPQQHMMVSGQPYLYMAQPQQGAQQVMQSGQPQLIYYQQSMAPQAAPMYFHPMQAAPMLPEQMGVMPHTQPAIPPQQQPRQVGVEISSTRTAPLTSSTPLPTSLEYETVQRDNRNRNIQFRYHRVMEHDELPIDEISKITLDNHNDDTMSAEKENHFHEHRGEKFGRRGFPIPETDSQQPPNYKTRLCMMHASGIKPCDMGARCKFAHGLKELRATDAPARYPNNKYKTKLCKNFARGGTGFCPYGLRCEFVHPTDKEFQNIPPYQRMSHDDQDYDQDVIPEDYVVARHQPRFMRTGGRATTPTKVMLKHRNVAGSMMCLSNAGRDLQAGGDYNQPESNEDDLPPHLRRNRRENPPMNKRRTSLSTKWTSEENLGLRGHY

Leucine aminopeptidase = biological target: T3, Leucine aminopeptidase (Plasmodium falciparum 3D7, UniProt Q8IL11); assay: P. falciparum M17LAP inhibitors, primary screen, biochemical, fluorogenic H-Leu-NHMec substrate, 1536-well (AID 1619); assay type: functional
T3 sequence (Q8IL11 whole entry): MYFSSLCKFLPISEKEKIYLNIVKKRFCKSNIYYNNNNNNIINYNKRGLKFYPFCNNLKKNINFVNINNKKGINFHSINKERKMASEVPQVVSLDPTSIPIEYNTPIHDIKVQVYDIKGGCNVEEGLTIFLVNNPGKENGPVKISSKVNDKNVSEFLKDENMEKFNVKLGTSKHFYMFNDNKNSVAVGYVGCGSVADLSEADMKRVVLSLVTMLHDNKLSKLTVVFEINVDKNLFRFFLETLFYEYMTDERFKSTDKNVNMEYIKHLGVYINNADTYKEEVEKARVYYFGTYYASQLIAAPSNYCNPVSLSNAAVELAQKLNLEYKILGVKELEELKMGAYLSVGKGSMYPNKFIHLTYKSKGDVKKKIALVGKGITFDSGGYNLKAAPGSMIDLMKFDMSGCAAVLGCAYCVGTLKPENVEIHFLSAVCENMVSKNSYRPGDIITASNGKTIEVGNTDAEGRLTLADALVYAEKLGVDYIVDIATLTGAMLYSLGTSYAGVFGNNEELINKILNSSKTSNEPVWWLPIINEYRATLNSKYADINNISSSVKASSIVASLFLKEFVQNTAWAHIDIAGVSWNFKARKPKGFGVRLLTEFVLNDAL

[3] = inhibitors of firefly luciferase expression or activity, dose response, H4 neuroglioma cells, luminescence (AID 1990); assay type: functional, cell-based
[4] = HeLa cell cytotoxicity, dose response, cytotoxicity control for MgcRacGAP inhibitor project (AID 624300); assay type: functional
[5] = inhibitors of SNCA 5'UTR-driven reporter translation, confirmation, H4 neuroglioma cells, luminescence (AID 1988); assay type: functional, cell-based
[6] = Luminescence Cell-Based Dose Response HTS to Identify Inhibitors of 5'UTR Stem-Loop Driven Prion Protein mRNA Translation in H4 Neuroglioblastoma Cells. [Related pubchem assays: 1827 (Project Summary), 1813 (Primary HTS)]; assay type: functional
[7] = biological target: T4, Rac GTPase-activating protein 1 (Homo sapiens, UniProt Q9H0H5); assay: MgcRacGAP GTPase-activating activity inhibitors, confirmation, biochemical, ADP Hunter fluorescence, primary and confirmatory (AID 624330); assay type: functional
T4 sequence (Q9H0H5 whole entry): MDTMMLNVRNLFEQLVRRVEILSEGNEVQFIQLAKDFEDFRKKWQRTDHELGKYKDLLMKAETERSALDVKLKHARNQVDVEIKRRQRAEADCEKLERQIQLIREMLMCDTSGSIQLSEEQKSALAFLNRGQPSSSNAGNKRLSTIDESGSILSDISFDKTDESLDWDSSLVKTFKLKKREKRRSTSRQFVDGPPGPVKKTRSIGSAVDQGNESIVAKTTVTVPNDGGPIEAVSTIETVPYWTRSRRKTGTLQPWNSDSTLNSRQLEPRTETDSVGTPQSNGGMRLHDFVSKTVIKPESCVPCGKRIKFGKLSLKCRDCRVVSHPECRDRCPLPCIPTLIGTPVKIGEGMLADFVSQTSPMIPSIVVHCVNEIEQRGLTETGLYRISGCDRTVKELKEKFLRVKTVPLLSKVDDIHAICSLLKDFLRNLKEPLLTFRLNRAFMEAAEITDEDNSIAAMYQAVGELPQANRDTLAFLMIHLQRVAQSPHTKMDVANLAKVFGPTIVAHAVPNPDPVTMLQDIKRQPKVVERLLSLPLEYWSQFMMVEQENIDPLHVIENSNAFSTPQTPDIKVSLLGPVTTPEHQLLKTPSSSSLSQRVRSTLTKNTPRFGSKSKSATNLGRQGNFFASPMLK

H9c2 = assay: cells; assay type: functional, cell-based; conditions: Rattus norvegicus, H9c2, Myocardium;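 also: confirmatory concentration-response retest of ultra-high-throughput screening hits for modulation of myocardial damage; cell death induced by hydrogen peroxide oxidative stress; compound pretreatment for 60 min then peroxide exposure for 2 h; potency is for protecting the cells against peroxide damage rather than for killing them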
INS1 = assay: beta cell apoptosis inhibitors, cytokine rescue, dose response, luminescence, retest (AID 449756); assay type: functional, cell-based; conditions: Rattus norvegicus;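 also: cell death triggered by IL-1 beta plus TNF-alpha plus IFN-gamma mixture; protective hits raise ATP signal compared with cytokine alone wells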
BJ [8] = assay: cytotoxicity toward BJ-TERT fibroblasts, dose response, cell-based, RAS-independent, luminescence (AID 1933); assay type: functional; conditions: Homo sapiens
BJ [9] = assay: cells; assay type: functional, cell-based; conditions: Homo sapiens
[10] = cytotoxicity toward DRD oncogenic fibroblasts, dose response, cell-based, non-viral oncogenic, luminescence (AID 1934); assay type: functional; conditions: Homo sapiens
BJ [11] = assay: cytotoxicity toward BJ-TERT-LT-ST fibroblasts, dose response, cell-based, RAS-independent, luminescence (AID 1935); assay type: functional; conditions: Homo sapiens;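 also: BJ fibroblasts immortalized with TERT plus LT and ST oncogenes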
[12] = biological target: T5, Heat shock factor protein 1 (Mus musculus, UniProt P38532); assay: inhibition of MG132-induced HSE-luciferase signal, confirmation, cell-based, NIH3T3, luminescence, dose retest (AID 2382); assay type: functional;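 also: NIH3T3 fibroblasts with HSF1-driven luciferase reporter stressed by proteasome inhibitor MG132; luminescence from HSF1-driven luciferase expression after 8 hours of MG132 stress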
T5 sequence (P38532 whole entry): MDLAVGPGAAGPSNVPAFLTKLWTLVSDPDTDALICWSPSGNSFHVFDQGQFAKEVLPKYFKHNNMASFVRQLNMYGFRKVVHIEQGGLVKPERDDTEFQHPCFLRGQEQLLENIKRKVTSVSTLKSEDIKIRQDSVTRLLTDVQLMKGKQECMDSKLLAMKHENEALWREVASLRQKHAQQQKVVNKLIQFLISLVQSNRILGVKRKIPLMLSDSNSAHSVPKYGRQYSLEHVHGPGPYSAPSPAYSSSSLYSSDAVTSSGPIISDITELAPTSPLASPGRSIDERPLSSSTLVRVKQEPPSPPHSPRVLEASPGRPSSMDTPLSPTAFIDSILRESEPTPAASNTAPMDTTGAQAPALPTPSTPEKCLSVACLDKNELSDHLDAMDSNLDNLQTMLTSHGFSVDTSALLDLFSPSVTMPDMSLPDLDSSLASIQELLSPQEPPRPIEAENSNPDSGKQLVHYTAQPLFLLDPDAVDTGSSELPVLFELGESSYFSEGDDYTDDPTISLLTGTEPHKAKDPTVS

Which results are given for `OCCCNc1ncnc2sc3c(c12)CCN(Cc1ccccc1)C3`?
EC50 [1]: > 300 µM (not active); EC50 [2]: 24.9 µM (active)

For `COc1cccc(NC(=O)CSc2nc3c(oc4ccccc43)c(=O)[nH]2)c1`, which IC50 (Leucine aminopeptidase) is on record?
The IC50 was < 1 µM (active).

Which results are given for `CCOc1cc(/C=C(\C#N)c2[nH]nc(N)c2C#N)ccc1O`?
EC50 [3]: 11.9 µM (active); CC50 [4]: 100 µM (active); EC50 [5]: > 120 µM (not active); EC50 [6]: 14.6 µM (active)

Which IC50 [7] does the source give for `Nc1ccccc1C(=O)NNc1c2ccccc2nc2ccccc12` here?
Its IC50 is 98.3 µM (active).

And the CC50 [4]?
The CC50 was 100 µM (active).

For `CCOC(=O)/C(C#N)=C\C=C1C=CN(C)C=C1`, which IC50 (Leucine aminopeptidase) is on record?
The IC50 was 90 µM (active).

Which IC50 (H9c2) does the source give for `c1ccc(-c2nn3c(-c4ccco4)nnc3s2)nc1` here?
The IC50 was 12.8 µM (active).

Which IC50 (H9c2) does the source give for `CCOc1ccccc1NC(=O)c1oc2ccccc2c1NC(=O)C1CCCO1` (stereo not given) here?
Its IC50 is > 79 µM (inactive).

Which results are given for `COc1ccc(/C=C2\CCCC(C(=O)C(F)(F)F)=C2O)cc1OC`?
EC50 [1]: > 300 µM (not active); EC50 [2]: 254 µM (inconclusive)

With `Cn1c(=O)c2nc(NN=Cc3ccc(Br)cc3)[nH]c2n(C)c1=O` as the compound, how does the IC50 (H9c2) read?
The IC50 was > 79 µM (inactive).

What does the source list for `C/C(=N\NC(=O)c1ccccc1NC(=O)c1ccc(Cl)cc1)c1ccncc1`?
AC50 (INS1): 0.902 µM (active); EC50 (BJ [8]): 0.856 µM (inconclusive); EC50 (BJ [9]): 1.21 µM (inconclusive); EC50 [10]: 1.12 µM (active); EC50 (BJ [11]): 2.18 µM (inconclusive)

Which IC50 (H9c2) does the source give for `COc1ccc(-c2csc(/C(C#N)=C(\O)CSc3nccn3C)n2)cc1OC` here?
Its IC50 is > 79 µM (inactive).

And the EC50 [12]?
The EC50 was > 195 µM (not active).

What does the source list for `Cc1n[nH]c(O)c1/C=N/N1CCOCC1`?
EC50 [1]: > 300 µM (not active); EC50 [2]: > 300 µM (not active)

With `O=C(O)c1cccc(-c2ccc(/C=N/NC(=O)C3COc4ccccc4O3)o2)c1` (stereo not given) as the compound, how does the IC50 (Leucine aminopeptidase) read?
The IC50 was 45.6 µM (active).
